Source: patent publication US6617321B2, “2-methyl-thieno-benzodiazepine formulation” (Eli Lilly and Company, priority 1997, dated 2003)

Test: Solubility of olanzapine pamoate salts as a function of pH
Type: physicochemical
Conditions: particularly in the range of pH 4 to 8

Cc1cc2c(s1)Nc1ccccc1N=C2N1CCN(C)CC1.O=C(O)c1cc2ccccc2c(Cc2c(O)c(C(=O)O)cc3ccccc23)c1O [olanzapine pamoate, 2-methyl-4-(4-methyl-1-piperazinyl)-10H-thieno[2,3-b][1,5]benzodiazepine pamoate]
solubility, dependence on pH: somewhat independent of pH
